The results in this text go back to ChEMBL document CHEMBL5329205, “Development of novel quinoline-NO donor hybrids inducing human breast cancer cells apoptosis via inhibition of topoisomerase I” (Bioorg Med Chem, 2023).

Series [1] relates to MCF7. Description: Antiproliferative activity against human MCF7 cells assessed as inhibition of cell growth incubated for 48 hrs by MTT assay. Particulars: MCF7, 48 h. The series is classed as functional, cell-based. (Tetrazolium assays rely on reduction of a dye to a coloured formazan, in cell work by metabolically active cells.)
A further series deals with NCI/ADR-RES. Description: Antiproliferative activity against human MCF7ADR cells assessed as inhibition of cell growth measured after 48 hrs by MTT assay. Format: functional, cell-based.
Series [2] has as its system MCF7. Description: Antiproliferative activity against human MCF7 cells assessed as NO release at 4 uM preincubated with PTIO for 2 hrs followed by compound addition and measured after 24 hrs by total nitric oxide assay. The series is classed as functional, cell-based.
Series [3] has as its target T1, DNA topoisomerase 1 (Homo sapiens) (UniProt P11387).
T1 sequence (whole entry): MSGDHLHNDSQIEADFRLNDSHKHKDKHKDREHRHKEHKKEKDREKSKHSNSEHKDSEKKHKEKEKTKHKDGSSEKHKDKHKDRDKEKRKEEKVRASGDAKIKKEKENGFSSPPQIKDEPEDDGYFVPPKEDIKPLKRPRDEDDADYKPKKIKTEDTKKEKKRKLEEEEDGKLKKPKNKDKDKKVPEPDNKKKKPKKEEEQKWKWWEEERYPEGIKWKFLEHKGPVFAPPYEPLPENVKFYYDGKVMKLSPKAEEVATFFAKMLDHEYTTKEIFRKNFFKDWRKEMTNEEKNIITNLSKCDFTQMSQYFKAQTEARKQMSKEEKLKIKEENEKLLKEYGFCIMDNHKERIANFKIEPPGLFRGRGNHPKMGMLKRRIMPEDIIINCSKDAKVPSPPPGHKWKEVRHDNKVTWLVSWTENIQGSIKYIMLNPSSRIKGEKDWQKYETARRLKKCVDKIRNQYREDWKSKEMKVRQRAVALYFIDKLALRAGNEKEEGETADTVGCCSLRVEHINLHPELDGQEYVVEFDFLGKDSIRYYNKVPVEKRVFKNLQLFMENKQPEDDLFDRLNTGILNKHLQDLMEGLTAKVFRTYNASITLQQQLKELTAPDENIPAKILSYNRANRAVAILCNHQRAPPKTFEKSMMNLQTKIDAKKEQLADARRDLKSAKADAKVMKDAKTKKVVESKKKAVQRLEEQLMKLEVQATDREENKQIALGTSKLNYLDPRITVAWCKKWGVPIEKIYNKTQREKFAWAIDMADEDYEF
Nature of the series: Inhibition of human DNA topoisomerase I mediated supercoiled DNA relaxation activity incubated for 30 mins by Ged Red staining based agarose gel electrophoresis analysis. Particulars: dose 20-100 µM.

Series [4] deals with MCF7. Description: Induction of apoptosis in human MCF7 cells assessed as upregulation of cleaved-PARP expression incubated for 24 hrs by Western blot analysis. The series is classed as functional, cell-based. Particulars: dose 1-4 µM. (In general: Immunoblotting shows a protein as a band on a membrane.)
The subject of series [5] is MCF7. Nature of the series: Induction of apoptosis in human MCF7 cells assessed as upregulation of cleaved caspase-3 expression incubated for 24 hrs by Western blot analysis. Format: functional, cell-based. Particulars: dose 1-4 µM.
Series [6] concerns MCF7. Nature of the series: Induction of apoptosis in human MCF7 cells assessed as downregulation of Bcl-2 expression incubated for 24 hrs by Western blot analysis. Format: functional, cell-based. Particulars: dose 1-4 µM.
The test system of series [7] is MCF7. Nature of the series: Induction of ROS generation in human MCF7 cells at 0.1 uM incubated for 24 hrs by DCFH-DA staining based fluorescent microscopic analysis. Format: functional, cell-based.
Series [8] has as its system MCF7. Description: Induction of cell cycle arrest in human MCF7 cells assessed as G1 phase cells at 3 uM incubated for 24 hrs by PI/RNaseA staining based flow cytometry analysis (reference value: 66.08 %). The series is classed as functional.
In series [9] the test system is MCF7. Description: Induction of cell cycle arrest in human MCF7 cells assessed as S phase cells at 1.5 uM incubated for 24 hrs by PI/RNaseA staining based flow cytometry analysis (reference value: 22.2 %). Format: functional. (In general: In flow cytometry, cells or beads pass a laser one at a time.)
In series [10] the test system is MCF7. Description: Induction of cell cycle arrest in human MCF7 cells assessed as S phase cells at 3 uM incubated for 24 hrs by PI/RNaseA staining based flow cytometry analysis (reference value: 22.2 %). The series is classed as functional.
Series [11] has as its system MCF7. Description: Induction of cell cycle arrest in human MCF7 cells assessed as G2 phase cells at 3 uM incubated for 24 hrs by PI/RNaseA staining based flow cytometry analysis (reference value: 7.67 %). The series is classed as functional.
Series [12] is described as follows: Toxicity in BALB/c nude mouse xenografted with human MCF7 cells assessed as heart damage at 5 mg/kg, ip administered once every two days for 3 weeks by H and E staining based microscopic analysis. Format: organism-based. Particulars: in vivo, 504 h.
Series [13] is described as follows: Toxicity in BALB/c mouse xenografted with human MCF7 cells assessed as heart damage at 10 mg/kg, ip administered once every two days for 3 weeks by H and E staining based microscopic analysis. Format: organism-based. Particulars: in vivo, 504 h.
The nature of series [14]: Toxicity in BALB/c mouse xenografted with human MCF7 cells assessed as liver damage at 10 mg/kg, ip administered once every two days for 3 weeks by H and E staining based microscopic analysis. The series is classed as organism-based. Particulars: in vivo, 504 h.
Series [15] can be described thus: Toxicity in BALB/c mouse xenografted with human MCF7 cells assessed as lung damage at 10 mg/kg, ip administered once every two days for 3 weeks by H and E staining based microscopic analysis. The series is classed as organism-based. Particulars: in vivo, 504 h.
In series [16] the test system is MCF7. Description: Induction of apoptosis in human MCF7 cells assessed as late apoptotic cells at 0.75 uM incubated for 48 hrs by Annexin-V/PI staining based flow cytometry analysis (reference value: 0.0%). The series is classed as functional.
Series [17] relates to MCF7. Description: Induction of apoptosis in human MCF7 cells assessed as necrotic cells at 1.5 uM incubated for 48 hrs by Annexin-V/PI staining based flow cytometry analysis (reference value: 0.0%). The series is classed as functional.

Activity calls are given as the source filed them. The calls are words filed in the database; no cut-off is given here.

As a reminder, the IC50 is the point on the concentration scale where inhibition reaches its midpoint. For `COc1cc(-c2cc(C(=O)OCCCCCOc3no[n+]([O-])c3S(=O)(=O)c3ccccc3)c3ccccc3n2)cc(OC)c1OC`, the IC50 worked out at 1450 nM in the series with MCF7 [1] and 620 nM in the series with NCI/ADR-RES. Also, the result with MCF7 [2] was inactive. The inhibition result in series [3] was “Dose-Dependent Effect”. In addition, the Activity entry with MCF7 [4] was “Dose-Dependent Effect”; in the series on MCF7 [5] it was “Dose-Dependent Effect”; with MCF7 [6] it was “Dose-Dependent Effect”; in the series on MCF7 [8] it was 58.98%; in the series with MCF7 [9] it was 20.71%; in the series on MCF7 [10] it was 17.82%. In addition, the Activity is 23.52% with MCF7 [11]; “Non-Toxic” in series [12]; “Non-Toxic” in [13]; “Non-Toxic” in series [14]; “Non-Toxic” in series [15]; 18% in the series with MCF7 [16]. For the same compound, the Activity in the series with MCF7 [17] is recorded as 3.3%. Besides, the result with MCF7 [7] was Active.
